Source: patent US12390473B2, “Methods of treating tyrosine kinase inhibitor-induced diarrhea” (THE REGENTS OF THE UNIVERSITY OF CALIFORNIA, priority 2019, dated 2025)

Key:
[1] = system: T84 human colonic epithelial cells; experiment: Short-circuit current in T84 cell monolayers, identical apical and basolateral solutions; assay type: cell-based; details: for short-circuit current, TKI alone: 40 μM lapatinib, 20 μM gefitinib, before carbachol; for short-circuit current, TKI alone / effect on residual afatinib-induced carbachol response in BAPTA-treated cells: 20 μM afatinib; for effect on residual afatinib-induced carbachol response in BAPTA-treated cells: 10 μM inhibitor; for effect on carbachol and forskolin induced current responses, without and with afatinib pretreatment: 30 μM clotrimazole, 10 μM senicapoc, 30 min prior to 100 μM carbachol then 10 μM forskolin; for effect of higher concentrations on the small residual current: data not shown
Description: T84 cells (ATCC CCL-248) are cultured in a 1:1 mixture of DMEM/Ham's F-12 medium supplemented with 10% FBS, 100 U/mL penicillin and 100 μg/mL streptomycin. Cells are grown on Snapwell inserts (Costar Corning, Horseheads, NY) at 37° C. in 5% CO2/95% air and used 7-10 days after plating.
T84 cells are mounted in Ussing chambers and bathed in symmetrical HCO3-buffered solution containing (in mM): 120 NaCl, 5 KCl, 1 MgCl2, 1 CaCl2, 10 D-glucose, 5 HEPES and 25 NaHCO3 (pH 7.4). The solutions are aerated with 95% O2/5% CO2 and maintained at 37° C. For measurement of basolateral K^+ conductance, a mucosal-to-serosal K^+ gradient is established using solutions containing K^+ as the major charge-carrying ion. The apical solution contained (in mM): 142.5 K-gluconate, 1.25 CaCl2, 0.40 MgSO4, 0.43 KH2PO4, 0.35 Na2HPO4, 10 HEPES, 5.6 D-glucose, pH 7.4. […] For measurement of apical Cl^− conductance, a basolateral to apical Cl^− gradient is applied. The basolateral solution contained (in mM): 120 NaCl, 1 MgCl2, 1 CaCl2, 10 D-glucose, 5 HEPES and 25 NaHCO3 (pH 7.4). In the apical solution 120 mM NaCl is replaced by 5 mM NaCl and 115 mM Na-gluconate, and the basolateral membrane is permeabilized with 250 μg/ml amphotericin B (Pongkorpsakol P, Pathomthongtaweechai N, Srimanote P, Soodvilai S, Chatsudthipong V, and Muanprasat C. Inhibition of cAMP-activated intestinal chloride secretion by diclofenac: cellular mechanism and potential application in cholera. PLoS Negl Trop Dis. 2014; 8(9):e3119). Short-circuit current is measured using an EVC4000 multichannel voltage clamp (World Precision Instruments, Sarasota, FL). For intestinal short-circuit current measurement, CD1 mice are anesthetized with isoflurane. The ileum is removed, washed with ice-cold Krebs buffer, opened along the mesenteric border, and full-thickness layer is mounted in a micro-Ussing chamber (area 0.7 cm2, World Precision Instruments, Sarasota, FL). Hemichambers are filled with oxygenated Krebs-bicarbonate solution.
The effect of ErbB TKIs lapatinib, gefitinib, and afatinib on Cl^− secretory responses in T84 human colonic epithelial cells is tested. Short-circuit current is measured in T84 cell monolayers with identical solutions bathing the apical and basolateral surfaces.

[2] = system: basolateral membrane K+ channel(s); experiment: Basolateral K+ conductance: short-circuit current in apically permeabilized T84 cells with K+ gradient; assay type: cell-based, human; details: apical membrane permeabilized
Description: (§1) T84 cells are mounted in Ussing chambers and bathed in symmetrical HCO3-buffered solution containing (in mM): 120 NaCl, 5 KCl, 1 MgCl2, 1 CaCl2, 10 D-glucose, 5 HEPES and 25 NaHCO3 (pH 7.4). The solutions are aerated with 95% O2/5% CO2 and maintained at 37° C. For measurement of basolateral K^+ conductance, a mucosal-to-serosal K^+ gradient is established using solutions containing K^+ as the major charge-carrying ion. The apical solution contained (in mM): 142.5 K-gluconate, 1.25 CaCl2, 0.40 MgSO4, 0.43 KH2PO4, 0.35 Na2HPO4, 10 HEPES, 5.6 D-glucose, pH 7.4. […] Short-circuit current is measured using an EVC4000 multichannel voltage clamp (World Precision Instruments, Sarasota, FL).
To measure basolateral membrane K^+ conductance directly, short-circuit current is measured in T84 cells following permeabilization of the apical membrane with amphotericin B in Cl^− and Na^+ free solutions and an apical-to-basolateral K^+ gradient (FIG. 7A).

Sprague-Dawley rats = experiment: Rat model of afatinib diarrhea (stool water content, intestinal histology); assay type: in vivo; details: for reduction of the increased stool water content with afatinib: senicapoc 30 mg/kg oral twice daily; for inhibition of the increase in stool water content: days 3 and 4
Description: Female Sprague-Dawley rats (age 8-10 weeks) received oral afatinib (60 mg/kg oral) daily for 6 days. […] Rats are placed individually in metabolic cages and given access to water and food. Stool samples are collected for 5 hours. To measure stool water content, the stool samples are dried at 70° C. for 24 hours and water content is calculated as (wet weight−dry weight)/wet weight. Following initial dose-finding studies in mice and rats with several TKIs, using stool water content (from wet and dry weight measurement) as endpoint, a robust, short-term experimental animal model of afatinib diarrhea is established involving daily oral administration of 60 mg/kg afatinib in rats.

[3] = biological target: epithelial Ca2+-activated K+ channels (Homo sapiens, UniProt O15554); details: reported; cited from earlier work
Chain of epithelial Ca2+-activated K+ channels (O15554 whole entry): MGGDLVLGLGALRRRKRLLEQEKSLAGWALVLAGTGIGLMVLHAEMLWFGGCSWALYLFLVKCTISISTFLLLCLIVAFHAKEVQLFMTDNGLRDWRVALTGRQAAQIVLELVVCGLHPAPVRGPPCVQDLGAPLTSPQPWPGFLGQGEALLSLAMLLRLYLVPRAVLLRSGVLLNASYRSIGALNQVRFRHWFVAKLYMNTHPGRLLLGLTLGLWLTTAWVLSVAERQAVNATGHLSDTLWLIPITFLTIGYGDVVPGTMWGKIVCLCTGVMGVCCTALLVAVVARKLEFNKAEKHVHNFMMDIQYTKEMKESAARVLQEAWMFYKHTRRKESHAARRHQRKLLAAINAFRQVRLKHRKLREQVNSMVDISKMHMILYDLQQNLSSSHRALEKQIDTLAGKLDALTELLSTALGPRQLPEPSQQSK

[4] = biological target: T1, apical membrane CFTR Cl- channels (Homo sapiens, UniProt P13569); experiment: Apical Cl- conductance: short-circuit current in basolaterally permeabilized T84 cells with Cl- gradient; assay type: cell-based; details: basolateral membrane permeabilized, 10 μM BPO-27
T1 construct: endogenous in cells; host or cells: T84 (ATCC CCL-248)
T1 sequence (P13569 whole entry): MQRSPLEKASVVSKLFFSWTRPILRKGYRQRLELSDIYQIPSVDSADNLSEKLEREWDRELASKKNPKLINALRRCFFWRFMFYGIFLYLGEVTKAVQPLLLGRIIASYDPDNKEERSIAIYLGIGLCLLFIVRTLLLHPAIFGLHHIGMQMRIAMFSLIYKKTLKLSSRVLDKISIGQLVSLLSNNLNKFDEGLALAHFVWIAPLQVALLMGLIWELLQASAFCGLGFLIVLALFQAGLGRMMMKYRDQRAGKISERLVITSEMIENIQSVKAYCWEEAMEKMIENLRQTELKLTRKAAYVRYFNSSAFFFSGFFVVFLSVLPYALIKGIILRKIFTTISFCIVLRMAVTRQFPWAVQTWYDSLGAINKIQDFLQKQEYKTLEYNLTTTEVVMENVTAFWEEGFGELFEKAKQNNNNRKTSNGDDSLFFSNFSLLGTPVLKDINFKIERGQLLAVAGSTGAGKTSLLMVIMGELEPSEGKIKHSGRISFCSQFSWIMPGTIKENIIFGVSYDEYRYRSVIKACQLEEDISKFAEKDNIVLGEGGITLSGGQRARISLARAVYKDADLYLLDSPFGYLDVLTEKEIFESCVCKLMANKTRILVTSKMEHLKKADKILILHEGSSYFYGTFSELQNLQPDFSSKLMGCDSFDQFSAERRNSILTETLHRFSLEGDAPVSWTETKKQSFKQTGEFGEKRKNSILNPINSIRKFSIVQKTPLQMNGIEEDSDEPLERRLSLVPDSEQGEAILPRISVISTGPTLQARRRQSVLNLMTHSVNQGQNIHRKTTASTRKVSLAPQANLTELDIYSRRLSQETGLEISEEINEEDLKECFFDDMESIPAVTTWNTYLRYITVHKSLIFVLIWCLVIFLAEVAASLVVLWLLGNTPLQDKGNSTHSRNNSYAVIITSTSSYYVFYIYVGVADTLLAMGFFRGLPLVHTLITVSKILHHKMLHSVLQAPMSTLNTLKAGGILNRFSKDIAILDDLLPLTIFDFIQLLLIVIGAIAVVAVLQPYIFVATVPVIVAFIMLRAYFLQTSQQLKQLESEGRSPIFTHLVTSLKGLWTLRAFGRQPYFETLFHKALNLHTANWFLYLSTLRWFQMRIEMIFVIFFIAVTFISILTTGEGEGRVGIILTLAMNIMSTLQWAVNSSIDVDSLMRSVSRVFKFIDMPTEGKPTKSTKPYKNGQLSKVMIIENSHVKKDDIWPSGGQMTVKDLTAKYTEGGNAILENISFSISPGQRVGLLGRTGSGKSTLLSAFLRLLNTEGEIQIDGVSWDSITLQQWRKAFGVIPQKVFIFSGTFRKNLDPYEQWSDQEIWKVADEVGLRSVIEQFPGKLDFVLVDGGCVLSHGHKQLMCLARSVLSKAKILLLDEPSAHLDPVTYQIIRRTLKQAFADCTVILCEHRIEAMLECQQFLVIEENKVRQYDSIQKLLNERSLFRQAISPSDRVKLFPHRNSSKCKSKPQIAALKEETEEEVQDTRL

[5] = system: cAMP-activated K+ channels; experiment: Inhibition of forskolin-induced short-circuit current in T84 cells (FIG. 11B); assay type: cell-based, human; details: 10 μM forskolin
Description: as §1

[6] = 30 μM BAPTA-AM, 100 μM carbachol
[7] = afatinib-treated rats, BPO-27 10 mg/kg ip twice daily, clotrimazole 100 mg/kg oral in two divided doses

## CS(=O)(=O)CCNCc1ccc(-c2ccc3ncnc(Nc4ccc(OCc5cccc(F)c5)c(Cl)c4)c3c2)o1 [lapatinib]
[1]
  short-circuit current, TKI alone: do not increase short-circuit current

## COc1cc2ncnc(Nc3ccc(F)c(Cl)c3)c2cc1OCCCN1CCOCC1 [gefitinib]
[1]
  short-circuit current, TKI alone: do not increase short-circuit current

## O=C(O)c1ccc(/C=C2\SC(=S)N(c3cccc(C(F)(F)F)c3)C2=O)cc1 [CFTRinh-172]
[1]; [6]
  effect on residual afatinib-induced carbachol response in BAPTA-treated cells: blocked

## Clc1ccccc1C(c1ccccc1)(c1ccccc1)n1ccnc1 [clotrimazole]
[1]
  effect on carbachol and forskolin induced current responses, without and with afatinib pretreatment: largely prevents
  effect of higher concentrations on the small residual current: does not inhibit the residual current
[2]; afatinib pretreatment, carbachol
  effect on afatinib-amplified carbachol response (basolateral K+ conductance): largely blocked
Sprague-Dawley rats; [7]
  reduction of the increased stool water content with afatinib: significantly reduced
Sprague-Dawley rats; afatinib-treated rats, clotrimazole 100 mg/kg oral in two divided doses
  inhibition of the increase in stool water content: ~75%
[3]
  inhibition of epithelial Ca2+-activated K+ channels in patch-clamp studies: fully inhibit

## EGF: Epidermal growth factor (NSDSECPLSHDGYCLHDGVCMYIEALDKYACNCVVGYIGERCQYRDLKWWELR; UniProt P01133 971-1023, looked up)
[1]; 100 ng/ml EGF 25 min prior to 100 μM carbachol
  effect on Cl- secretion in response to carbachol: greatly reduces

## Cn1c(=O)c2c(-c3ccccc3)n3c(c2n(C)c1=O)[C@H](c1ccc(Br)o1)Oc1ccc(C(=O)O)cc1-3 [BPO-27]
[1]; 10 μM BPO-27, 20 μM afatinib, 100 μM carbachol
  effect on afatinib augmentation of carbachol-induced current: blocks the afatinib augmentation
[1]; 10 μM BPO-27, 100 μM carbachol
  effect on carbachol-induced current without afatinib: little effect
[1]; [6]
  effect on residual afatinib-induced carbachol response in BAPTA-treated cells: blocked
[4]
  effect on afatinib-amplified carbachol response (apical Cl- conductance): blocked
Sprague-Dawley rats; afatinib-treated rats, BPO-27 10 mg/kg ip twice daily from 1 day after first afatinib dose
  inhibition of the increase in stool water content: ~50%
Sprague-Dawley rats; [7]
  reduction of the increased stool water content with afatinib: significant reduction
Sprague-Dawley rats; afatinib-treated rats, BPO-27 10 mg/kg ip twice daily, day 5
  inhibitor effect on stool water content by day 5: reduced inhibitor effect

## CC(=O)OCOC(=O)CN(CC(=O)OCOC(C)=O)c1ccccc1OCCOc1ccccc1N(CC(=O)OCOC(C)=O)CC(=O)OCOC(C)=O [BAPTA-AM]
[1]; [6]
  effect on carbachol response: largely prevents the carbachol response

## CN(C)C/C=C/C(=O)Nc1cc2c(Nc3ccc(F)c(Cl)c3)ncnc2cc1O[C@H]1CCOC1 [afatinib]
[1]; Homo sapiens, added 25 min prior to carbachol, read-out: EC50 of amplification of carbachol-induced short-circuit current
  EC50: ~5 µM
[2]; 20 μM afatinib, 100 μM carbachol
  increase in carbachol response (basolateral K+ conductance) after pretreatment: ~2 fold
Sprague-Dawley rats; rats, 60 mg/kg afatinib oral daily
  intestinal histology: relatively minor pathology up to day 4, but greater epithelial disruption after that
Sprague-Dawley rats; rats, 60 mg/kg afatinib oral daily, days 4-5, baseline ~60%
  stool water content: > 80%
Sprague-Dawley rats; rats, 60 mg/kg afatinib oral, day 6
  intestinal histology (H&E) by day 6: scattered epithelial disruption is seen in jejunum (black arrowheads) and villus atrophy in ileum
Sprague-Dawley rats; rats, 60 mg/kg afatinib oral, up to day 4
  intestinal histology (H&E) up to day 4: minor injury up to day 4 with villus blunting in ileum

## CCn1c(=O)[nH]c2ccccc21 [EBIO]
[1]; EBIO 500 μM and/or afatinib 20 μM, 25 min prior to 100 μM carbachol then 10 μM forskolin
  effect of pretreatment on carbachol and forskolin current responses: amplifies the carbachol and forskolin current responses

## NC(=O)C(c1ccccc1)(c1ccc(F)cc1)c1ccc(F)cc1 [senicapoc]
[1]
  effect on carbachol and forskolin induced current responses, without and with afatinib pretreatment: largely prevents
  effect of higher concentrations on the small residual current: does not inhibit the residual current
[5]
  IC50 for inhibition of cAMP-dependent basolateral K+ conductance: low micromolar
Sprague-Dawley rats; [7]
  reduction of the increased stool water content with afatinib: Significant, though lesser reduction
